According to patent US9725465B2, “Biaryl acetamide compounds and methods of use thereof” (Ambit Biosciences Corporation, priority 2013, dated 2017):

How the values were obtained:
[1] = molecular target: FLT3 kinase (Homo sapiens (Human), UniProt P36888); assay: Competition binding assay (Kd), FLT3; conditions: competition binding assay
Protocol: The liganded beads were blocked with excess biotin and washed with blocking buffer (SeaBlock (Pierce), 1% BSA, 0.05% Tween 20, 1 mM DTT) to remove unbound ligand and to reduce non-specific binding. […] Test compounds were prepared as 100× stocks in DMSO and diluted into the aqueous environment. Kds were determined using an eleven point threefold serial dilutions. DMSO or control compounds were was added to control assays lacking a test compound. […] The kinase concentration in the eluates was measured by quantitative PCR.
A selectivity score (S35) is a quantitative measure of selectivity of a compound against a panel of kinases. […] Percent of control (POC) is calculated by subtracting the signal of the control compound (POC=0) from the signal of the test compound and dividing the outcome by the signal of DMSO (POC=100) minus the signal of the control compound.

[2] = molecular target: FLT3-ITD (Homo sapiens (Human), UniProt P36888, INS600HVDFREYEYD); assay: pFLT3 MSD assay, Ba/F3 FLT3-ITD; format: cell-based; conditions: Ba/F3 FLT3-ITD cells, 2 hours, read-out: BaF3-FLT3-ITD pFlt3 IC50
[3] = molecular target: KIT kinase (Homo sapiens (Human), UniProt P10721); assay: Competition binding assay (Kd), KIT; conditions: competition binding assay
Method in brief: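 Kinase, as T7 phage fusion or HEK-293-expressed DNA-tagged protein, competed off immobilised ligand beads by test compound (eleven-point threefold dilutions, from 100× DMSO stocks). Eluted kinase quantified by qPCR to derive Kd; DMSO used as control.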

KIT kinase, sequence (P10721 26-976): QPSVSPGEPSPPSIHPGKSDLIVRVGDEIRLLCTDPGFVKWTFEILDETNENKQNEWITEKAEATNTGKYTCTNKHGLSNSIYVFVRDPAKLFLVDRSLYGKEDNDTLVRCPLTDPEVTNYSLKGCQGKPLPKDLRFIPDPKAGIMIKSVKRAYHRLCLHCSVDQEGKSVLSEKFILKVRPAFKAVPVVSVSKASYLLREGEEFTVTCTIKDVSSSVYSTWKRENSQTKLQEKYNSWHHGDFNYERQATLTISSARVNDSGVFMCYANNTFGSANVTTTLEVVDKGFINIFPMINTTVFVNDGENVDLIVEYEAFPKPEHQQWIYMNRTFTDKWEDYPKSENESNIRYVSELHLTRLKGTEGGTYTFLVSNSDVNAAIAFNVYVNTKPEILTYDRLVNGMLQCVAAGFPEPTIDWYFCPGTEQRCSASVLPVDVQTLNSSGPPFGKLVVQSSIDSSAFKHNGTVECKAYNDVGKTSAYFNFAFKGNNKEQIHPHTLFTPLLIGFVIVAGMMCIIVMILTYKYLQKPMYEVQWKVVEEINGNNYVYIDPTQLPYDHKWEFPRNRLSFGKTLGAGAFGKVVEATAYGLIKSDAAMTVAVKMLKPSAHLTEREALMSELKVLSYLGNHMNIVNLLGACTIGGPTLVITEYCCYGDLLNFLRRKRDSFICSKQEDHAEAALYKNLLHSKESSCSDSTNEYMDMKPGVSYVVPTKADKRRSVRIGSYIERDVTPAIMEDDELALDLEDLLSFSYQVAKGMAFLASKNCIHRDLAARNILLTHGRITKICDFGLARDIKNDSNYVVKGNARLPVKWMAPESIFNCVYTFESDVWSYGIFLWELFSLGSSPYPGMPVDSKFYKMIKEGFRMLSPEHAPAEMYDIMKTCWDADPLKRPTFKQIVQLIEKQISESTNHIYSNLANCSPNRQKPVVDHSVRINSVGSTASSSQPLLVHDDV
FLT3-ITD, sequence (P36888 other isoform, or with tags, fused parts or gaps limits assumed, stated change not applied): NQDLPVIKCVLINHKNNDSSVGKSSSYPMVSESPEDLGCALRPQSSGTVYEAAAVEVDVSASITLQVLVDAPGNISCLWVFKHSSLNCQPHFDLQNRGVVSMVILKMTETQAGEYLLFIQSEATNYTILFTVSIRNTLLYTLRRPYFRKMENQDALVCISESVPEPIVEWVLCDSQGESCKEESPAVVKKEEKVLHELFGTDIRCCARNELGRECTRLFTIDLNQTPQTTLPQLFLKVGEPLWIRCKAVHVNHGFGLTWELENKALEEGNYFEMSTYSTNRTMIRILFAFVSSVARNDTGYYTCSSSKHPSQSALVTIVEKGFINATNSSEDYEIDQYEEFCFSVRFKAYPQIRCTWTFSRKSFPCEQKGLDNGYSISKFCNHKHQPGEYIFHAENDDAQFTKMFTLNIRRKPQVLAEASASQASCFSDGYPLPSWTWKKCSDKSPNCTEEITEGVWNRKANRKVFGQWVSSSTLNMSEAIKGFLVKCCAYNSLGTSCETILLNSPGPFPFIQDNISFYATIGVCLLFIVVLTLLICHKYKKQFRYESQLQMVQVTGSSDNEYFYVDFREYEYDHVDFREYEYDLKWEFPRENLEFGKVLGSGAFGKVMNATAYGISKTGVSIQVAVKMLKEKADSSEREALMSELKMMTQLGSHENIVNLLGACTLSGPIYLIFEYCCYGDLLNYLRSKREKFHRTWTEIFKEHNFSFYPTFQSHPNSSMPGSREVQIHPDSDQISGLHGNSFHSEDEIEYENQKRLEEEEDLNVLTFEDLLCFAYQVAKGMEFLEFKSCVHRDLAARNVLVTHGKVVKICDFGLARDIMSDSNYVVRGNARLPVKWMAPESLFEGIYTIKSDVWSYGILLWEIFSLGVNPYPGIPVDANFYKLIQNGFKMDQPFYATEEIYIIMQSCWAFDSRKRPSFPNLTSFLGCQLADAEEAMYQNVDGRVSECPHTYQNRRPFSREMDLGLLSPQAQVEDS
FLT3 kinase, sequence (P36888 27-993): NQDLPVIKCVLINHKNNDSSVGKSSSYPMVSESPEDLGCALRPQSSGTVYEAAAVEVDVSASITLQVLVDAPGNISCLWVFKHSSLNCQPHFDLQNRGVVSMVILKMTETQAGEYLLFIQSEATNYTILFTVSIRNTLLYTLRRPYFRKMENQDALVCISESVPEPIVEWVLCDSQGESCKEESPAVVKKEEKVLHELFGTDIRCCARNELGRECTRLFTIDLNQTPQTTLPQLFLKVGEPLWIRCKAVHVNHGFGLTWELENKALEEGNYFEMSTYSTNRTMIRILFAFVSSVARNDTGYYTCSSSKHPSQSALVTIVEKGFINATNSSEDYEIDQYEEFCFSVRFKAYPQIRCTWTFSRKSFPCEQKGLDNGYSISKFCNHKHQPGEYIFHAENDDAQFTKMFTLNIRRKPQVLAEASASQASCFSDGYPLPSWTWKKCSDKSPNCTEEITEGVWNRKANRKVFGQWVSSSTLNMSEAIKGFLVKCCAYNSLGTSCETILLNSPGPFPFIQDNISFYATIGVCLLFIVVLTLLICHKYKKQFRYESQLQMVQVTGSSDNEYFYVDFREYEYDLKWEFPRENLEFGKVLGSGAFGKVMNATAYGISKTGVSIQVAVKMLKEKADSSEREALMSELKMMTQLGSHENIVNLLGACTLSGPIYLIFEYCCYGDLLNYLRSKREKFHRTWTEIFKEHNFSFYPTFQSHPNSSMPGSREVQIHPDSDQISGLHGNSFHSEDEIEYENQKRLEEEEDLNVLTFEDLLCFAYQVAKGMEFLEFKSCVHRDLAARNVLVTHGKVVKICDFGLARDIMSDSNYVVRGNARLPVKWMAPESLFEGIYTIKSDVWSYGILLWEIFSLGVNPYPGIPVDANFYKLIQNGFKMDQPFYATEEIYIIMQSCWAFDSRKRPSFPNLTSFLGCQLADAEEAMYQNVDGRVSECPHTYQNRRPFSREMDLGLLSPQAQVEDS

## CC(C)(C)c1cc(NC(=O)Cc2ccc(-c3cnc4[nH]c(C(=O)NCCO)cc4c3)cc2)no1 [Example 64, 5-(4-(2-((5-(tert-butyl)isoxazol-3-yl)amino)-2-oxoethyl)phenyl)-N-(2-hydroxyethyl)-1H-pyrrolo[2,3-b]pyridine-2-carboxamide]
[1]
  Kd: < 5 nM
[2]
  IC50: < 10 nM
[3]
  Kd: < 5 nM

## CNC(=O)c1cc2cc(-c3ccc(CC(=O)Nc4cc(C(C)(C)C)on4)cc3)cnc2[nH]1 [Example 65, 5-(4-(2-((5-(tert-butyl)isoxazol-3-yl)amino)-2-oxoethyl)phenyl)-N-methyl-1H-pyrrolo[2,3-b]pyridine-2-carboxamide]
[1]
  Kd: < 5 nM
[2]
  IC50: < 10 nM
[3]
  Kd: < 5 nM

## CN(C)CCNC(=O)c1cc2cc(-c3ccc(CC(=O)Nc4cc(C(C)(C)C)on4)cc3)cnc2[nH]1 [Example 66, 5-(4-(2-((5-(tert-butyl)isoxazol-3-yl)amino)-2-oxoethyl)phenyl)-N-(2-(dimethylamino)ethyl)-1H-pyrrolo[2,3-b]pyridine-2-carboxamide]
[1]
  Kd: < 5 nM
[2]
  IC50: < 10 nM
[3]
  Kd: < 5 nM

## CN(C)CCCN(C)C(=O)c1cc2cc(-c3ccc(CC(=O)Nc4cc(C(C)(C)C)on4)cc3)cnc2[nH]1 [Example 67, 5-(4-(2-((5-(tert-butyl)isoxazol-3-yl)amino)-2-oxoethyl)phenyl)-N-(3-(dimethylamino)propyl)-N-methyl-1H-pyrrolo[2,3-b]pyridine-2-carboxamide]
[1]
  Kd: < 5 nM
[2]
  IC50: < 10 nM
[3]
  Kd: < 5 nM

## CC(C)(C)c1cc(NC(=O)Cc2ccc(-c3cnc4[nH]c(C(=O)NCCS(C)(=O)=O)cc4c3)cc2)no1 [Example 68, 5-(4-(2-((5-(tert-butyl)isoxazol-3-yl)amino)-2-oxoethyl)phenyl)-N-(2-(methylsulfonyl)ethyl)-1H-pyrrolo[2,3-b]pyridine-2-carboxamide]
[1]
  Kd: < 5 nM
[2]
  IC50: < 10 nM
[3]
  Kd: < 5 nM

## CN1CCC(NC(=O)c2cc3cc(-c4ccc(CC(=O)Nc5cc(C(C)(C)C)on5)cc4)cnc3[nH]2)CC1 [Example 69, 5-(4-(2-((5-(tert-butyl)isoxazol-3-yl)amino)-2-oxoethyl)phenyl)-N-(1-methylpiperidin-4-yl)-1H-pyrrolo[2,3-b]pyridine-2-carboxamide]
[1]
  Kd: < 5 nM
[2]
  IC50: < 10 nM
[3]
  Kd: < 5 nM

## O=C(Cc1ccc(-c2cnc3[nH]c(CO)cc3c2)cc1F)Nc1cc(C2(C(F)(F)F)CC2)on1 [Example 70, 2-(2-fluoro-4-(2-(hydroxymethyl)-1H-pyrrolo[2,3-b]pyridin-5-yl)phenyl)-N-(5-(1-(trifluoromethyl)cyclopropyl)isoxazol-3-yl)acetamide]
[1]
  Kd: < 5 nM
[2]
  IC50: < 10 nM
[3]
  Kd: < 5 nM

## CC(=O)OCCOc1cc2ncc(-c3ccc(CC(=O)Nc4cc(C5(C(F)(F)F)CC5)on4)c(F)c3)nc2cc1OCCOC(C)=O [Example 74, ((2-(3-fluoro-4-(2-oxo-2-((5-(1-(trifluoromethyl)cyclopropyl)isoxazol-3-yl)amino)ethyl)phenyl)quinoxaline-6,7-diyl)bis(oxy))bis(ethane-2,1-diyl) diacetate]
[1]
  Kd: < 5 nM
[2]
  IC50: < 10 nM
[3]
  Kd: 5 to 20 nM

## O=C(Cc1ccc(-c2cnc3cc(OCCO)c(OCCO)cc3n2)cc1F)Nc1cc(C2(C(F)(F)F)CC2)on1 [Example 75, 2-(4-(6,7-bis(2-hydroxyethoxy)quinoxalin-2-yl)-2-fluorophenyl)-N-(5-(1-(trifluoromethyl)cyclopropyl)isoxazol-3-yl)acetamide]
[1]
  Kd: < 5 nM
[2]
  IC50: < 10 nM
[3]
  Kd: < 5 nM

## O=C(Cc1ccc(-c2cnc3cc4c(cc3n2)OCCO4)cc1F)Nc1cc(C2(C(F)(F)F)CC2)on1 [Example 76, 2-(4-(2,3-dihydro-[1,4]dioxino[2,3-g]quinoxalin-7-yl)-2-fluorophenyl)-N-(5-(1-(trifluoromethyl)cyclopropyl)isoxazol-3-yl)acetamide]
[1]
  Kd: < 5 nM
[2]
  IC50: < 10 nM
[3]
  Kd: 5 to 20 nM

## COc1cc2nc(-c3ccc(CC(=O)Nc4cc(C5(C(F)(F)F)CC5)on4)c(F)c3)cnc2cc1O [Example 78, 2-(2-fluoro-4-(6-hydroxy-7-methoxyquinoxalin-2-yl)phenyl)-N-(5-(1-(trifluoromethyl)cyclopropyl)isoxazol-3-yl)acetamide]
[1]
  Kd: < 5 nM
[2]
  IC50: < 10 nM
[3]
  Kd: < 5 nM

## COc1cc2nc(-c3ccc(CC(=O)Nc4cc(C5(C(F)(F)F)CC5)on4)c(F)c3)cnc2cc1OCCN1CCOCC1 [Example 79, 2-(2-fluoro-4-(7-methoxy-6-(2-morpholinoethoxy)quinoxalin-2-yl)phenyl)-N-(5-(1-(trifluoromethyl)cyclopropyl)isoxazol-3-yl)acetamide]
[1]
  Kd: < 5 nM
[2]
  IC50: < 10 nM
[3]
  Kd: < 5 nM

## COc1cc2ncc(-c3ccc(CC(=O)Nc4cc(C5(C(F)(F)F)CC5)on4)c(F)c3)nc2cc1OCCO [Example 80, 2-(2-fluoro-4-(7-(2-hydroxyethoxy)-6-methoxyquinoxalin-2-yl)phenyl)-N-(5-(1-(trifluoromethyl)cyclopropyl)isoxazol-3-yl)acetamide]
[1]
  Kd: < 5 nM
[2]
  IC50: < 10 nM
[3]
  Kd: < 5 nM

## CCOc1cc2ncc(-c3ccc(CC(=O)Nc4cc(C5(C(F)(F)F)CC5)on4)c(F)c3)cc2cc1OC [Example 86, 2-(4-(7-ethoxy-6-methoxyquinolin-3-yl)-2-fluorophenyl)-N-(5-(1-(trifluoromethyl)cyclopropyl)isoxazol-3-yl)acetamide]
[1]
  Kd: < 5 nM
[2]
  IC50: < 10 nM
[3]
  Kd: < 5 nM

## COc1cc2cc(-c3ccc(CC(=O)Nc4cc(C5(C(F)(F)F)CC5)on4)c(F)c3)cnc2cc1OCCO [Example 88, 2-(2-fluoro-4-(7-(2-hydroxyethoxy)-6-methoxyquinolin-3-yl)phenyl)-N-(5-(1-(trifluoromethyl)cyclopropyl)isoxazol-3-yl)acetamide]
[1]
  Kd: < 5 nM
[2]
  IC50: < 10 nM
[3]
  Kd: < 5 nM

## COc1cc2nc(-c3ccc(CC(=O)Nc4cc(C5(C(F)(F)F)CC5)on4)c(F)c3)cnc2cc1OC1CN(C)C1 [Example 90, 2-(2-fluoro-4-(7-methoxy-6-((1-methylazetidin-3-yl)oxy)quinoxalin-2-yl)phenyl)-N-(5-(1-(trifluoromethyl)cyclopropyl)isoxazol-3-yl)acetamide]
[1]
  Kd: < 5 nM
[2]
  IC50: < 10 nM
[3]
  Kd: < 5 nM

## COc1cc2cc(-c3ccc(CC(=O)Nc4cc(C(C)(C)C(F)(F)F)on4)c(F)c3)cnc2cc1OCCO [Example 91, 2-(2-fluoro-4-(7-(2-hydroxyethoxy)-6-methoxyquinolin-3-yl)phenyl)-N-(5-(1,1,1-trifluoro-2-methylpropan-2-yl)isoxazol-3-yl)acetamide]
[1]
  Kd: < 5 nM
[2]
  IC50: < 10 nM
[3]
  Kd: < 5 nM

## CC(C)(C)c1cc(NC(=O)Cc2ccc(-c3cnc4[nH]cc(C5(O)COC5)c4c3)cc2)no1 [Example 97, N-(5-tert-butylisoxazol-3-yl)-2-[4-[3-(3-hydroxyoxetan-3-yl)-1H-pyrrolo[2,3-b]pyridin-5-yl]phenyl]acetamide]
[1]
  Kd: < 5 nM
[2]
  IC50: < 10 nM
[3]
  Kd: < 5 nM

## O=C(Cc1ccc(-c2cnc3nn4c(c3c2)OC(CO)C4)cc1F)Nc1cc(C2(C(F)(F)F)CC2)on1 (stereo not drawn) [Example 98, 2-[2-fluoro-4-[2-(hydroxy-methyl)-2,3-dihydro-oxazolo[3,4]pyrazolo[1,3-b]pyridin-8-yl]phenyl]-N-[5-[1-(trifluoro-methyl)cyclopropyl]isoxazol-3-yl]acetamide]
[1]
  Kd: < 5 nM
[2]
  IC50: < 10 nM
[3]
  Kd: < 5 nM

## CN1CCN(C(=O)c2cc3cc(-c4ccc(CC(=O)Nc5cc(C(C)(C)C)on5)cc4)cnc3[nH]2)CC1 [Example 99, N-(5-tert-butylisoxazol-3-yl)-2-[4-[2-(4-methylpiperazine-1-carbonyl)-1H-pyrrolo[2,3-b]pyridin-5-yl]phenyl]acetamide]
[1]
  Kd: < 5 nM
[2]
  IC50: < 10 nM
[3]
  Kd: < 5 nM

## CN(C)CCNC(=O)c1n[nH]c2ncc(-c3ccc(CC(=O)Nc4cc(C(C)(C)C)on4)cc3)cc12 [Example 100, 5-[4-[2-[(5-tert-butylisoxazol-3-yl)amino]-2-oxo-ethyl]phenyl]-N-[2-(dimethylamino)ethyl]-1H-pyrazolo[3,4-b]pyridine-3-carboxamide]
[1]
  Kd: < 5 nM
[2]
  IC50: < 10 nM
[3]
  Kd: 5 to 20 nM

## CC(C)(C)c1cc(NC(=O)Cc2ccc(-c3cnc4[nH]nc(-n5nccn5)c4c3)cc2)no1 [Example 101, N-(5-tert-butylisoxazol-3-yl)-2-[4-[3-(triazol-2-yl)-1H-pyrazolo[3,4-b]pyridin-5-yl]phenyl]acetamide]
[1]
  Kd: < 5 nM
[2]
  IC50: < 10 nM
[3]
  Kd: < 5 nM

## O=C(Cc1ccc(-c2cnc3[nH]nc(OCC(F)F)c3c2)cc1F)Nc1cc(C2(C(F)(F)F)CC2)on1 [Example 102, 2-[4-[3-(2,2-difluoroethoxy)-1H-pyrazolo[3,4-b]pyridin-5-yl]-2-fluoro-phenyl]-N-[5-[1-(trifluoro-methyl)cyclopropyl]isoxazol-3-yl]acetamide]
[1]
  Kd: < 5 nM
[2]
  IC50: < 10 nM
[3]
  Kd: < 5 nM

## CC(C)(C)c1cc(NC(=O)Cc2ccc(-c3cnc4[nH]nc(-n5ccnn5)c4c3)cc2)no1 [Example 103, N-(5-tert-butylisoxazol-3-yl)-2-[4-[3-(triazol-1-yl)-1H-pyrazolo[3,4-b]pyridin-5-yl]phenyl]acetamide]
[1]
  Kd: < 5 nM
[2]
  IC50: < 10 nM
[3]
  Kd: < 5 nM

## O=C(Cc1ccc(-c2cnc3[nH]nc(OCCF)c3c2)cc1F)Nc1cc(C2(C(F)(F)F)CC2)on1 [Example 104, 2-[2-fluoro-4-[3-(2-fluoroethoxy)-1H-pyrazolo[3,4-b]pyridin-5-yl]phenyl]-N-[5-[1-(trifluoro-methyl)cyclopropyl]isoxazol-3-yl]acetamide]
[1]
  Kd: < 5 nM
[2]
  IC50: < 10 nM
[3]
  Kd: < 5 nM
